# Experimental data as given in paper PMC10435442, “Developing multitarget coumarin based anti-breast cancer agents: synthesis and molecular modeling study” (Scientific Reports, 2023).
# Where “and” joins values, the source holds several entries; their conditions need not be identical. Equal values may be shown once. Read-outs that look alike come from different tables or passages of the source.
# Experiments:
# in vitro = details: human, MCF-10A cells (nonmalignant breast)
# MDA-MB-231 [1] = assay: DNA flow cytometric cell cycle analysis, MDA-MB-231; assay type: cell-based, human
# Bax = Bax level (ELISA) in treated cells; assay type: cell-based, human
# MDA-MB-231 [2] = assay: MTT cytotoxicity assay, MDA-MB-231; details: for IC50: Homo sapiens; for % viability: MDA
# MDA-MB-231 [3] = assay: Annexin V-FITC/PI dual staining apoptosis assay, MDA-MB-231; assay type: cell-based, human; details: MDA-MB-231
# EGFR = EGFR (Homo sapiens, UniProt P00533); assay: In vitro EGFR enzyme inhibition assay (ELISA)
# EGFR, sequence (P00533 25-1210): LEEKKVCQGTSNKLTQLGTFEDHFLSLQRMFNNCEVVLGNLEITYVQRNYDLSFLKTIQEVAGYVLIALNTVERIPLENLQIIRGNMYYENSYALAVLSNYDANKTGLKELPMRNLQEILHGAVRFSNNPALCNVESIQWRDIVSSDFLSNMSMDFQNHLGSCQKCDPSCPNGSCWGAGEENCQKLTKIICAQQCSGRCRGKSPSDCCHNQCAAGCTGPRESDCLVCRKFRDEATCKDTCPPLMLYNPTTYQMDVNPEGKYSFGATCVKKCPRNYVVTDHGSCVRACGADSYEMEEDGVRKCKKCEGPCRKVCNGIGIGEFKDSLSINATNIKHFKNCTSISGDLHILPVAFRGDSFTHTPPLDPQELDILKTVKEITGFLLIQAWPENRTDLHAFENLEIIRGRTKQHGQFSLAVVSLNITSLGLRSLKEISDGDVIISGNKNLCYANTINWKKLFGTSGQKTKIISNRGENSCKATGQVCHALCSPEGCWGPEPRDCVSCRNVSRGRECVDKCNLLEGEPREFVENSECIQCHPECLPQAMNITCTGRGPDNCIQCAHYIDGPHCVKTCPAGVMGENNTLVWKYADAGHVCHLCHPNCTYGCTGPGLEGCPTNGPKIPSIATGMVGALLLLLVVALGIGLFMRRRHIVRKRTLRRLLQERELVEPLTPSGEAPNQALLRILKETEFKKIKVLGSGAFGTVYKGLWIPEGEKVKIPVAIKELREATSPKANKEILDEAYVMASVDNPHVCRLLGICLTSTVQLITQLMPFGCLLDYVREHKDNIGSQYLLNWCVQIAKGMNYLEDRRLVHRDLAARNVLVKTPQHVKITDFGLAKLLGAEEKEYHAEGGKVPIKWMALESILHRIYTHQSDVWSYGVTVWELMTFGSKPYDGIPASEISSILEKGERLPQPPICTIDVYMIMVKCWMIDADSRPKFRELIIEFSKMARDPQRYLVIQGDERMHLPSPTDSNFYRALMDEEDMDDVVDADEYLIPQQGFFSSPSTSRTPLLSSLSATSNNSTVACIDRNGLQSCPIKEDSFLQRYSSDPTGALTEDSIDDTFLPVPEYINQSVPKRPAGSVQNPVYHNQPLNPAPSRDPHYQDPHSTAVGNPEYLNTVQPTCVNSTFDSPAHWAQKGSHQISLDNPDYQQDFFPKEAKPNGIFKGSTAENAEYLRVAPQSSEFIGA
# MCF-7 = assay: MTT cytotoxicity assay, MCF-7; details: for IC50: Homo sapiens
# Bcl-2 = Bcl-2 level (ELISA) in treated cells; assay type: cell-based, human; details: for Bcl-2 Conc. (Average) / Bcl-2 Conc. (single wells): Bcl-2 ELISA; for BCL2 FLD (fold vs control): cont.MDA = 1
# MCF-10A = assay: MTT cytotoxicity assay, nonmalignant MCF-10A; details: read-out: MCF-10A IC50; MTT, nonmalignant MCF-10A;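 further: MTT assay with absorbance read at 570 nm after 48 h exposure of cells to serial compound concentrations at 37 °C, testing selectivity against nonmalignant versus cancer cells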
# Caspase-9 = Caspase-9 level (ELISA) in treated cells; assay type: cell-based, human
# [4] = MDA-MB-231, compared to control
# [5] = MDA, ELISA backfit, duplicate wells
# [6] = MDA cells (MDA-MB-231) treated with the compound, cont.MDA 10.83±0.046
# [7] = MDA cells (MDA-MB-231), duplicate wells, control 10.83
# [8] = MDA cells (MDA-MB-231), mean of 2 wells, control 10.83
# [9] = MDA cells (MDA-MB-231) treated with the compound, cont.MDA 2.611±0.19
# [10] = MDA cells (MDA-MB-231), caspase9 ELISA, duplicate wells, control 4.084
# [11] = MDA cells (MDA-MB-231), cont.MDA = 1
smiles,measurement,setting,value
"CC(=O)Oc1ccc2c(COC(=O)c3ccc(Cl)cc3)cc(=O)oc2c1 [Compound 14, (7-Acetoxy-2-oxo-2H-chromen-4-yl)methyl 4-chlorobenzoate]",IC50 at 48 h,in vitro,97.9 ± 4.77 µg/mL
same,"viability at 48 h, 0.4 ug",in vitro,85.6%
same,"viability at 48 h, 1.6 ug",in vitro,77.6%
same,"viability at 48 h, 6.25 ug",in vitro,67.2%
same,"viability at 48 h, 25 ug",in vitro,59.5%
same,"viability at 48 h, 100 ug",in vitro,49.6%
same,%G0-G1,"MDA-MB-231 [1]; MDA-MB-231, IC50 concentration",54.69^ikBD %
same,%G2/M,"MDA-MB-231 [1]; MDA-MB-231, IC50 concentration",7.09^dACDE %
same,%Pre-G1,"MDA-MB-231 [1]; MDA-MB-231, IC50 concentration",41.02^iklmC %
same,%S,"MDA-MB-231 [1]; MDA-MB-231, IC50 concentration",38.22^ABE %
same,cell cycle arrest at S phase,MDA-MB-231 [1]; [4],1.38 folds
same,increase of apoptotic cells in pre-G1 phase,MDA-MB-231 [1]; [4],19.9 folds
same,Bax Conc,Bax; MDA-MB-231 cells,0.292±0.0106^ghi ng/ml
same,Bax FLD (fold versus control),Bax; MDA-MB-231 cells,4.9 folds
same,selectivity against MDA-MB-231 than MCF-7,MDA-MB-231 [2],150 times
same,IC50,"MDA-MB-231 [2]; MDA-MB-231, read-out: MDA-MBA-231 IC50",1900 ± 30 nM
same,IC50,"MDA-MB-231 [2]; MDA-MB-231, read-out: cytotoxicity_IC50 MDA",0.64 ± 0.03 µg/mL
same,% viability,MDA-MB-231 [2]; 0.4ug (log conc. -0.41),53.505%
same,% viability,MDA-MB-231 [2]; 1.6ug (log conc. 0.19),43.354%
same,% viability,MDA-MB-231 [2]; 6.25ug (log conc. 0.8),34.773%
same,% viability,MDA-MB-231 [2]; 25ug (log conc. 1.4),26.136%
same,% viability,MDA-MB-231 [2]; 100ug (log conc. 2),15.4795%
same,% Apoptosis Early,MDA-MB-231 [3],23.61^ilmn %
same,% Apoptosis Late,MDA-MB-231 [3],13.22^hik %
same,% Apoptosis Total,MDA-MB-231 [3],41.02% and 41.02^gh %
same,% Necrosis,MDA-MB-231 [3],4.19%
same,IC50,"EGFR; EGFR IC50, lab report 01-09-2021, 04 compounds, reference Erlotinib",2440 nM
same,IC50,EGFR; EGFR inhibition IC50,2440 ± 51 nM
same,inhibition at 10 pg/mL,EGFR; read-out: EGFR %inh,18%
same,inhibition at 0.0001 µg/mL,EGFR; read-out: EGFR %inh,24%
same,inhibition at 0.001 µg/mL,EGFR; read-out: EGFR %inh,44%
same,inhibition at 0.01 µg/mL,EGFR; read-out: EGFR %inh,78%
same,Percentage above Reference IC50 (potency relative to erlotinib),EGFR; reference Erlotinib,5.942%
same,IC50,"MCF-7; MCF7, read-out: MCF-7 IC50",285000 ± 6410 nM
same,IC50,"MCF-7; MCF7, read-out: cytotoxicity_IC50 mcf7",106 ± 6.41 µg/mL
same,% viability,"MCF-7; MCF7, 0.4ug",88.083%
same,% viability,"MCF-7; MCF7, 1.6ug",77.238%
same,% viability,"MCF-7; MCF7, 6.3ug",66.961%
same,% viability,"MCF-7; MCF7, 25ug",60.34%
same,% viability,"MCF-7; MCF7, 100ug",50.7566%
same,Bcl-2 Conc,Bcl-2; MDA-MB-231 cells,2.984±0.12^gh ng/ml
same,Bcl-2 FLD (fold versus control),Bcl-2; MDA-MB-231 cells,0.329 folds
same,IC50,MCF-10A,263000 ± 4770 nM
same,Caspase-9 Conc.,Caspase-9; MDA-MB-231 cells,18.97±0.62^ghi ng/ml
same,Caspase-9 FLD (fold versus control),Caspase-9; MDA-MB-231 cells,4.37 folds
O=C(COc1ccc2c(COC(=O)c3ccccc3)cc(=O)oc2c1)c1ccc(Cl)cc1 [Compound S8],Bax Conc. (Average),"Bax; MCF7, ELISA backfit, wells A2-C2",164.5 pg/mL
same,BAX,"Bax; MCF7, cell culture supernatant",164.5 ± 5.58 pg/mL
same,BAX FLD,"Bax; MCF7, fold vs cont.MCF7 = 1",5.27
same,BCL2 conc.,Bcl-2; MCF7,3.291 ± 0.36 ng/mL
same,BCL2 FLD,"Bcl-2; MCF7, fold vs cont.MCF7 = 1",0.44
same,Bcl-2 Conc. (Average),"Bcl-2; MCF7 cells treated with the compound, mean of 3 wells, control 7.438",3.291 ng/mL
same,Bcl-2 Conc. (single wells),"Bcl-2; MCF7 cells treated with the compound, replicate wells, control 7.438",3.693 ng/mL and 3.01 ng/mL and 3.172 ng/mL
same,Casp9,"Caspase-9; MCF7 cells treated with the compound, cont.MCF7 4.528±0.61",30.39 ± 2.56 ng/mL
same,Caspase 9 Conc. (Average),"Caspase-9; MCF7 cells, caspase9 ELISA, mean of 3 wells, control 4.528",30.39 ng/mL
same,Caspase 9 Conc. (single wells),"Caspase-9; MCF7 cells, caspase9 ELISA, replicate wells, control 4.528",27.43 ng/mL and 31.78 ng/mL and 31.97 ng/mL
same,Casp9 FLD (fold vs control),"Caspase-9; MCF7 cells, cont.MCF7 = 1",6.71
O=C(COc1ccc2c(COC(=O)c3ccc(Cl)cc3)cc(=O)oc2c1)c1ccc(Cl)cc1 [s10],Bax Conc. (Average),Bax; [5],248.9 pg/mL
same,BAX,"Bax; MDA, cell culture supernatant",248.9 ± 7.88 pg/mL
same,BAX FLD,"Bax; MDA, fold vs cont.MDA = 1",3.6
same,BCL2 conc.,Bcl-2; [6],4.088 ± 0.058 ng/mL
same,Bcl-2 Conc. (single wells),Bcl-2; [7],4.046 ng/mL and 4.129 ng/mL
same,Bcl-2 Conc. (Average),Bcl-2; [8],4.088 ng/mL
same,BCL2 FLD (fold vs control),Bcl-2; MDA cells (MDA-MB-231),0.377
same,Casp9,Caspase-9; [9],16.77 ± 0.37 ng/mL
same,Caspase 9 Conc. (single wells),Caspase-9; [10],18.48 ng/mL and 17.62 ng/mL
same,Casp9 FLD (fold vs control),Caspase-9; [11],6.42
COc1ccccc1C(=O)OCc1cc(=O)oc2cc(OCC(=O)c3ccc(Cl)cc3)ccc12 [s12],Bax Conc. (Average),Bax; [5],360.4 pg/mL
same,BAX,"Bax; MDA, cell culture supernatant",360.4 ± 11.8 pg/mL
same,BAX FLD,"Bax; MDA, fold vs cont.MDA = 1",5.22
same,BCL2 conc.,Bcl-2; [6],2.934 ± 0.154 ng/mL
same,Bcl-2 Conc. (single wells),Bcl-2; [7],2.826 ng/mL and 3.043 ng/mL
same,Bcl-2 Conc. (Average),Bcl-2; [8],2.934 ng/mL
same,BCL2 FLD (fold vs control),Bcl-2; MDA cells (MDA-MB-231),0.271
same,Casp9,Caspase-9; [9],19.16 ± 0.41 ng/mL
same,Caspase 9 Conc. (single wells),Caspase-9; [10],21.43 ng/mL and 21.56 ng/mL
same,Casp9 FLD (fold vs control),Caspase-9; [11],7.34
